{
  "source": "patent US7014856B1",
  "about": "“Ganglioside-KLH conjugate vaccines plus OS-21” (Sloan-Kettering Institute for Cancer Research, priority 1993, dated 2006)",
  "key": {"[1]": {"tested_on": "patients", "experiment": "Toxicity in patients treated earlier with GM2 or GM2-KLH vaccines", "format": "in vivo, human"}, "[2]": {"tested_on": "ganglioside GM2", "experiment": "Peak antibody titer against ganglioside GM2 by ELISA (Table 2)", "format": "in vivo, human", "details": "peak titer against GM2 after immunization"}, "[3]": {"tested_on": "GM2", "experiment": "ELISA for GM2 antibodies in patients receiving GM2-KLH conjugate vaccines (third series)", "format": "in vivo, human", "description": "Four vaccinations were administered intradermally into extremities with intact lymphatic drainage at two-week intervals, followed by two additional vaccinations at eight week intervals. Cyclophosphamide (Cytoxan, Mead Johnson and Co., Evansville, Ind.) 200 mg/m2 was administered intravenously to all patients 4 to 6 days prior to the first vaccination.\n(§1) ELISA was performed as previously described (6). To control for nonspecific “stickiness”, immune sera were also tested on plates which were processed identically but to which no ganglioside had been added, and the reading was subtracted from the value obtained in the presence of ganglioside. The titer was defined as the highest dilution yielding a corrected absorbance of 0.1 or greater. Immunostaining of gangliosides with monoclonal antibodies or human sera was performed after spotting on nitrocellulose strips (14) or separation on HPTLC silica gel glass plates as previously described (3). Plates were developed in chloroform/methanol/water (0.25% CaCl2) 50:40:10 (v/v), and gangliosides were visualized by staining with resorcinol/HCl reagent or monoclonal antibodies."}, "[4]": {"tested_on": "GM2", "experiment": "Dot blot immune stain for GM2 antibodies (third series)", "format": "in vivo, human", "description": "as §1"}, "[5]": {"tested_on": "KLH", "experiment": "ELISA for KLH antibodies (third series)", "format": "in vivo, human"}, "[6]": {"tested_on": "GM2", "experiment": "ELISA titer against GM2 (fourth series)", "format": "in vivo, human", "description": "(§2) Enzyme-linked Immunosorbent Assay (ELISA) were performed as previously described for gangliosides (5). […] The titer was defined as the highest dilution yielding a corrected absorbance of 0.1 or greater. Immunostaining of gangliosides with monoclonal antibodies or human sera was performed after spotting on nitrocellulose strips as previously described (22). […] Twenty-five micrograms of each were diluted in 0.05 ml PBS and administered intradermally. Results were interpreted as described previously (5)."}, "[7]": {"tested_on": "GM2", "experiment": "Dot blot immune stain against GM2 (fourth series)", "format": "in vivo, human", "design": "key: Reactions were graded 0, 1+, 2+ or 3+; Reactions were graded 0, 1+, 2+ or 3+; Reactions were graded 0, 1+, 2+ or 3+; Reactions were graded 0, 1+, 2+ or 3+", "description": "as §2"}, "[8]": {"tested_on": "KLH", "experiment": "IgG ELISA titer against KLH (fourth series)", "format": "in vivo, human", "details": "No adjuvant", "description": "as §2"}, "[9]": {"tested_on": "melanoma patients", "details": "six patients per group"}, "[10]": {"tested_on": "melanoma patients", "experiment": "Delayed-type hypersensitivity skin tests with GM2, GM2-HSA and KLH", "format": "in vivo, human", "details": "25 micrograms intradermally at the fifth vaccination; 24 and 48 hours", "description": "as §2"}, "[11]": {"tested_on": "T antigen-KLH", "experiment": "Preclinical adjuvant studies with KLH-conjugate vaccines such as T antigen-KLH", "format": "in vivo, mice"}, "[12]": {"tested_on": "QS-21", "experiment": "ELISA for antibodies to QS-21", "format": "in vivo, human", "details": "after immunizations", "description": "as §2"}, "[13]": {"tested_on": "melanoma patients", "details": "outpatient setting, s.c. with GM2-KLH", "experimental": "Melanoma patients with AJCC Stage III or IV disease were considered eligible if all evidence of metastatic disease had been rejected within the last 8 months. None of the patients had received prior chemotherapy or radiation therapy. Patients were evaluated for toxicity at the time of each vaccination. In addition, patients were instructed to measure local reactions and to take their temperature.\nThe GM2/KLH solar ratio was approximately 800/1 and was supplied at a concentration of 0.57 mg conjugate per 0.5 ml normal saline. This represented one patient dose and contained 70 ug GM2, 500 ug KLH and 0.5 ml normal saline. QS-21 adjuvant, containing a saponin component isolated from Quillaja saponaria Molina tree bark, was provided by Cambridge Biotech Corp. (Worcester, Mass.). The purity of the QS-21 was determined to be ≧98% by analytical reverse phase HPLC. […] The vaccine (final volume 0.75 ml) was vortexed for 2–3 minutes and administered within 15 min. Four vaccinations were administered subcutaneously at two week intervals followed by two more at eight week intervals. Initially 12 patients were treated, 3 at each of the 4 QS-21 doses. […] Cyclophosphamide (Cytoxan, Mead Johnson and Co., Evansville, Id.) 200 mg/M^2 was administered IV to all patients 3–6 days prior to the first vaccination."}, "[14]": {"tested_on": "mouse, cat and Rhesus monkey", "details": "doses as high as 125 ug per mouse; cited from earlier work"}},
  "note": "Several values for one entry are separate records, joined by “and”; a condition that tells them apart may be missing. Equal values may be shown once. Entries after “also recorded” stand apart in the source; their conditions may differ.",
  "data": [
    {"substance": "11^3NeuAc-GgOse3Cer-keyhole limpet hemocyanin (KLH) [GM2-KLH]", "values": [
      {"measurement": "toxicity attributed to the substance", "setting": "[1]", "value": "pain and tenderness at vaccines sites lasting 48 hours"},
      {"measurement": "Antibody Titers by Elisa IgG", "setting": "[2]", "value": 0},
      {"measurement": "Reciprocal GM2 antibody titers before immunization IgG", "setting": "[3]; before immunization", "value": 0},
      {"measurement": "median titers: reciprocal GM2 antibody titer after immunization (Peak) IgG", "setting": "[3]; median, after immunization", "value": 0},
      {"measurement": "median titers: reciprocal GM2 antibody titer after immunization (Peak) IgM", "setting": "[3]; median, after immunization", "value": 80},
      {"measurement": "median titers: reciprocal GM2 antibody titer before immunization IgG", "setting": "[3]; median, before immunization", "value": 0},
      {"measurement": "median titers: reciprocal GM2 antibody titer before immunization IgM", "setting": "[3]; median, before immunization", "value": 0},
      {"measurement": "patients with 3+ reactivity of IgM antibodies against GM2", "setting": "[4]", "value": "two of six"},
      {"measurement": "median titers: reciprocal KLH antibody titer after immunization (Peak) IgG", "setting": "[5]", "value": 120},
      {"measurement": "Reciprocal median IgM antibody titer against GM2", "setting": "[6]; GM2-KLH alone", "value": 80},
      {"measurement": "median IgG antibody titer against GM2", "setting": "[6]; GM2-KLH alone", "value": 0},
      {"measurement": "patients who produced IgM antibody", "setting": "[6]; GM2-KLH alone", "value": "Five of 6"},
      {"measurement": "patients who produced IgG antibody (of low titer)", "setting": "[6]; GM2-KLH alone, 6 patients", "value": 1},
      {"measurement": "PEAK ELISA TITER AGAINST GM2 Pretreatment IgG", "setting": "[6]; No adjuvant", "value": "0 (6)"},
      {"measurement": "induction of IgM and IgG antibody titers, 7 μg GM2 dose versus 70 μg dose", "setting": "[6]; patients with advanced disease, 100 μg QS-21", "value": "equally as effective"},
      {"measurement": "median IgM dot blot reaction against GM2", "setting": "[7]; GM2-KLH alone", "value": "2+"},
      {"measurement": "PEAK DOT BLOT IMMUNE SYSTEM RESPONSE AGAINST GM2 IgG", "setting": "[7]; No adjuvant", "value": "0 and 1+"},
      {"measurement": "PEAK DOT BLOT IMMUNE SYSTEM RESPONSE AGAINST GM2 IgM", "setting": "[7]; No adjuvant", "value": "2+ and 1+, and 0 and 3+,"},
      {"measurement": "median IgG dot blot reaction against GM2", "setting": "[7]; no QS-21", "value": 0},
      {"measurement": "IgG ELISA TITER AGAINST KLH Pretreatment", "setting": "[8]", "value": "0 (6)"},
      {"measurement": "local or systemic side effects", "setting": "[9]", "value": "No local or systemic toxicity"}
    ]},
    {"substance": "II^3NeuAc-GgOse3Cer [GM2, reference compound]", "values": [
      {"measurement": "toxicity attributed to the substance", "setting": "[1]", "value": "No toxicity"},
      {"measurement": "reaction at skin test sites", "setting": "[10]", "value": "No erythema or induration"}
    ]},
    {"substance": "QS-21", "values": [
      {"measurement": "DTH", "setting": "[11]; mice", "value": "potent DTH"},
      {"measurement": "IgG antibody titers", "setting": "[11]; most mice, KLH-conjugate vaccine with QS-21", "value": "over 1/4000"},
      {"measurement": "antibodies against QS-21", "setting": "[12]", "value": "No antibodies against QS-21 were detected; also recorded: no significant increase in antibody to QS-21"},
      {"measurement": "probable MTD per vaccination", "setting": "[13]", "value": 200, "unit": "µg"},
      {"measurement": "toxicity", "setting": "[14]", "value": "no clear toxicity"}
    ]}
  ]
}
